This is an account of results in ChEMBL document CHEMBL1150806, “A new macrocyclic trichothecene, 12,13-deoxyroridin E, produced by the marine-derived fungus Myrothecium roridum collected in Palau” (J Nat Prod, 2001).

For test [1], the system named is HL-60. In words: Cytotoxicity against human HL60 cells after 72 hrs by WST8 assay. The class given is functional, cell-based. Background: Formazan colour is commonly taken as a measure of viable cells.
In test [2] the test system is L1210. Briefly: Cytotoxicity against mouse L1210 cells after 72 hrs by WST8 assay. The class given is functional, cell-based.

Values after ≈ are worked out from the molar mass of the structure shown.

Turning to `CC1=C[C@H]2O[C@@H]3C[C@H]4OC(=O)/C=C\C=C\C(=O)OCC/C(C)=C/C(=O)OC[C@@]2(CC1)[C@]4(C)[C@]31CO1` [VERRUCARIN J], the IC50 in test [1] (hl-60) and in test [2] (l1210) was 2.5 ng/mL (≈ 5.16 nM) in each case.
Regarding `CC1=C[C@H]2O[C@@H]3C[C@H]4OC(=O)/C=C\C=C\[C@H]([C@@H](C)O)OCC/C(C)=C/C(=O)OC[C@@]2(CC1)[C@]4(C)[C@]31CO1` [RORIDIN E], the values for the IC50 in test [1] (hl-60) and in test [2] (l1210) were 0.3 ng/mL (≈ 0.583 nM) and 0.2 ng/mL (≈ 0.389 nM), respectively.
For `CC1=C[C@H]2O[C@@H]3C[C@H]4OC(=O)/C=C\C=C\C(=O)OCC[C@@H](C)[C@H](O)C(=O)OC[C@@]2(CC1)[C@]4(C)[C@]31CO1` [VERRUCARIN A], in that order: 0.2 ng/mL (≈ 0.398 nM) and 0.35 ng/mL (≈ 0.696 nM).
Take `C=C1[C@H]2C[C@H]3OC(=O)/C=C\C=C\[C@H]([C@@H](C)O)OCC/C(C)=C/C(=O)OC[C@@]4(CCC(C)=C[C@H]4O2)[C@]13C`: the concentration for half-maximal inhibition (IC50) in test [1] (Homo sapiens, HL-60, 72 h, read-out: IC50) came out at 25 ng/mL (≈ 50.1 nM); in test [2] (Mus musculus, L1210, 72 h, read-out: IC50) it was 1.5 ng/mL (≈ 3.01 nM).

Broadly, the IC50 is the concentration at which inhibition is half-maximal.
